In ChEMBL document CHEMBL3272121, “Hypolipidemic analogues of ethyl 4-benzyloxybenzoate” (J Med Chem, 1977):

Experiments:
Rattus norvegicus [1] = experiment: Hypolipidemic activity in CFY Sprague-Dawley rat assessed as serum cholesterol level at 0.25% dietary level administered for 7 days relative to control; type: functional
Rattus norvegicus [2] = experiment: Hypolipidemic activity in CFY Sprague-Dawley rat assessed as serum triglyceride level at 0.25% dietary level administered for 7 days relative to control; type: functional
Rattus norvegicus [3] = experiment: Toxicity in CFY Sprague-Dawley rat assessed as body weight gain at 0.25% dietary level administered for 7 days relative to control; type: organism-based; details: in vivo, po, 168 h
Rattus norvegicus [4] = experiment: Toxicity in CFY Sprague-Dawley rat assessed as relative liver weight at 0.25% dietary level administered for 7 days relative to control; type: organism-based; details: in vivo, po, 168 h
Rattus norvegicus [5] = experiment: Hypolipidemic activity in CFY Sprague-Dawley rat assessed as liver lipid per gm of liver at 0.25% dietary level administered for 7 days relative to control; type: functional

SMILES	Activity (Rattus norvegicus [1]) [%]	Activity (Rattus norvegicus [2]) [%]	Activity (Rattus norvegicus [3]) [%]	Activity (Rattus norvegicus [4]) [%]	Activity (Rattus norvegicus [5]) [%]
COC(=O)Cc1ccc(OCc2ccccc2)c(OC)c1	-30	-45	-68	0	8
CCCCCCCCCCCCOC(=O)c1ccc(OCc2ccccc2)cc1	-11	-57	-3	6	–
CCOC(=O)c1ccc(OCc2ccccc2C)cc1	-10	-58	-23	0	–
CCOC(=O)c1ccc(COc2ccccc2)cc1	-25	-38	8	26	3
O=C([O-])c1ccc(OCc2ccccc2)cc1.[K+]	-20	-57	-12	0	–
CCOC(=O)c1ccc(OCc2ccccc2OC)cc1	-13	-42	-10	-2	7
CCOC(=O)CCCc1ccc(OCc2ccccc2)cc1	-10	-59	-57	9	–
CCOC(=O)c1ccc(COc2ccc(C(=O)OCC)cc2)cc1	-11	-60	3	-2	–
O=C(OC1CCCC1)c1ccc(OCc2ccccc2)cc1	-14	-29	-4	-14	–
CCOC(=O)c1ccc(OCc2cccc(Cl)c2)cc1	-19	-6	-1	10	-2
CCOC(=O)c1ccc(OCc2ccc(I)cc2)cc1	-18	-60	7	11	3
CCOC(=O)c1ccc(OCc2ccc(OC)cc2)cc1	-7	-55	-52	20	–
CCOC(=O)Cc1ccc(OCc2ccccc2F)cc1	-29	-64	-20	-22	-1
O=C(Oc1ccccc1)c1ccc(OCc2ccccc2)cc1	0	-18	-1	0	–
N#Cc1ccc(OCc2ccc(F)cc2)cc1	-17	1	6	20	7
COC(=O)c1ccc(OCc2ccccc2)cc1	-19	-51	-14	15	4
NC(=O)c1ccc(OCc2ccccc2)cc1	-1	-63	-2	13	–
CCOC(=O)c1ccc(OCc2ccc(Cl)cc2)cc1	-12	-53	-7	6	10
O=C(OCc1ccccc1)c1ccc(OCc2ccccc2)cc1	-21	-50	6	6	7
CCCCCCCCCCCCc1ccc(OCc2ccccc2)cc1	2	-37	9	8	–

SMILES	Activity (Rattus norvegicus [1]) [%]	Activity (Rattus norvegicus [2]) [%]	Activity (Rattus norvegicus [3]) [%]	Activity (Rattus norvegicus [4]) [%]	Activity (Rattus norvegicus [5]) [%]
CCOC(=O)c1ccc(OCc2cc(Cl)ccc2Cl)cc1	-25	-56	4	13	22
COc1cc(C=O)ccc1OCc1ccccc1	-23	-18	-16	0	1
O=C(c1ccc(OCc2ccccc2)cc1)N1CCCCC1	14	10	-67	2	–
CCOC(=O)c1ccc(OCc2ccccc2Cl)cc1	-7	-46	-16	7	–
CCOC(=O)c1ccc(COc2ccc(Cl)cc2)cc1	-13	7	-15	42	–
CCOC(=O)c1ccc(COc2ccc(C)c(C)c2)cc1	3	109	-1	10	–
CCCCCCCCCCOC(=O)c1ccc(OCc2ccccc2)cc1	-9	-64	-17	13	–
CCOC(=O)CCc1ccc(OCc2cccc(F)c2)cc1	-11	57	12	7	–
CCOC(=O)CCc1ccc(OCc2ccccc2F)cc1	-4	-49	14	7	–
CCOC(=O)c1ccc(OCc2ccc([N+](=O)[O-])cc2)cc1	-12	-28	-15	-2	–
COc1cc(C(C)=O)ccc1OCc1ccccc1	5	-51	-37	13	–
CCCCCCOC(=O)c1ccc(OCc2ccccc2)cc1	-9	-64	-3	8	–
Cc1ccc(COc2ccc(C(=O)O)cc2)cc1	-10	-57	-2	11	–
N#Cc1ccc(OCc2ccccc2)cc1	7	-31	-14	8	–
CCOC(=O)Cc1ccc(OCc2cccc(OC)c2OC)cc1	1	-25	12	20	–
CCOC(=O)c1ccc(COc2ccc(OC)cc2)cc1	4	-57	-19	-4	–
CCOC(=O)c1ccc(OCc2ccc(OC)c(OC)c2)cc1	-1	-33	-20	11	–
CCOC(=O)c1ccc(COc2ccc(C)cc2C)cc1	3	2	0	0	–
Cc1ccc(OCc2ccccc2)cc1C	-3	-62	24	13	–
CCCCCCCCCCCCNC(=O)c1ccc(OCc2ccccc2)cc1	1	-11	2	-5	–

SMILES	Activity (Rattus norvegicus [1]) [%]	Activity (Rattus norvegicus [2]) [%]	Activity (Rattus norvegicus [3]) [%]	Activity (Rattus norvegicus [4]) [%]	Activity (Rattus norvegicus [5]) [%]
CCOC(=O)c1cccc(OCc2ccccc2)c1	4	-30	4	6	–
CCOC(=O)c1ccc(COc2ccc(C#N)cc2)cc1	-12	-21	-46	20	–
OCc1ccc(OCc2ccccc2)cc1	-3	-45	11	15	–
COc1ccccc1COc1ccc(C(=O)O)cc1	-29	71	3	17	–
CCOC(=O)CCc1ccc(OCc2cccc(OC)c2OC)cc1	7	-9	4	23	–
O=C(NC1CCCCC1)c1ccc(OCc2ccccc2)cc1	-5	-18	-21	5	–
CCOC(=O)c1ccc(OCc2cccc(OC)c2)cc1	-10	-32	2	4	–
O=C([O-])c1ccc(OCc2ccccc2)cc1.O=C([O-])c1ccc(OCc2ccccc2)cc1.[Ca+2]	-8	-53	-12	0	–
O=C(O)c1ccc(OCc2ccc(Cl)c(Cl)c2)cc1	-9	-20	7	18	–
CCOC(=O)c1ccccc1OCc1ccccc1	0	-15	-26	-2	–
CCCCOC(=O)c1ccc(OCc2ccccc2)cc1	-10	-47	-18	4	–
O=Cc1ccc(OCc2ccc(F)cc2)cc1	-15	-59	16	15	–
CCCc1ccc(OCc2ccc(C)cc2)c(OC)c1	-13	216	-18	33	–
CCOC(=O)c1ccc(OCc2ccc(Cl)c(Cl)c2)cc1	-7	5	-5	10	–
COc1cc(C(=O)O)ccc1OCc1ccccc1	0	-28	15	6	–
CCOC(=O)c1ccc(COc2ccc(Br)cc2)cc1	-6	-16	3	24	–
CCOC(=O)c1ccc(COc2ccc(F)cc2)cc1	-14	-50	16	19	–
CC(=O)c1ccc(OCc2ccccc2)cc1	9	-46	-11	-6	–
